Measured values: patent US20150065717A1, “NIPECOTIC ACID DERIVATIVE AND USE THEREOF FOR MEDICAL PURPOSES” (Toray Industries, Inc., priority 2012, published 2015)
pIC50: −log10 of the molar value.

Key:
recombinant human sEH = target: T1, recombinant human sEH (Homo sapiens, UniProt P34913); experiment: In vitro evaluation test for sEH inhibitory activity; assay type: biochemical; details: recombinant human sEH 0.026 μg/mL, fluorescent substrate 6.25 μmol/L, room temperature
T1 construct: purchased Cayman
T1 sequence (P34913 1-555): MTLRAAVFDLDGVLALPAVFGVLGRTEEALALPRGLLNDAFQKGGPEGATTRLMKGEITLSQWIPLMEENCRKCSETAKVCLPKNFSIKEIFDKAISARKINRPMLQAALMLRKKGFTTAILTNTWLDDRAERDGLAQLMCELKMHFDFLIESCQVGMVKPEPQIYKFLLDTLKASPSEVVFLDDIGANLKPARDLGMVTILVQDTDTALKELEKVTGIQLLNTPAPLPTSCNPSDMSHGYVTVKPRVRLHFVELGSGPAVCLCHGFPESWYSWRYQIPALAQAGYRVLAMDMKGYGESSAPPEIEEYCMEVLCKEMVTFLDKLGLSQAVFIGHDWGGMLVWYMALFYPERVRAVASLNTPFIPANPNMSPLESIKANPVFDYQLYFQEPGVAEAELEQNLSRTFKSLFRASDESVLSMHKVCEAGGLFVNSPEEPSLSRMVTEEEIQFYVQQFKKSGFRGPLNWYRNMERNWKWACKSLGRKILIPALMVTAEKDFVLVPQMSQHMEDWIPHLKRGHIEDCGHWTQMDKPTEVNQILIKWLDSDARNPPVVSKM

[1] = tested on: rat anti-GBM antiserum-administered nephritis model; experiment: Pharmacological effect in rat anti-GBM antiserum-administered nephritis model; assay type: in vivo, rat (Wistar-Kyoto strain)
Method: Example Compound 1 or 2 was administered to a rat anti-GBM antiserum-administered nephritis model (Proceedings of the National Academy of Sciences of the United States of America, 2005, vol. 102, p. 7736-7741; European journal of pharmacology, 2002, vol. 449, p. 167-176), and the therapeutic effect of the nipecotic acid derivative (I) or a pharmaceutically acceptable salt thereof on chronic renal disease with glomerulonephritis and renal failure was evaluated. Rats (Wistar-Kyoto strain, male, 8 weeks old; Charles River Laboratories Japan, Inc.) with nephritis induced by administration of a rabbit anti-rat GBM antiserum prepared by methods described in documents (Proceedings of the National Academy of Sciences of the United States of America, 2005, vol. 102, p. 7736-7741; European journal of pharmacology, 2002, vol. 449, p. 167-176) into the tail vein were provided as “group with induced nephritis”. On the other hand, rats to which the anti-GBM antiserum was not administered were provided as “normal group”. Two weeks after administration of anti-GBM antiserum, blood was collected from the tail vein or jugular vein of each rat, and the sCre level was measured. The measurement of the sCre level was carried out by the enzymatic method. Two weeks after administration of anti-GBM antiserum, part of the rats were euthanized under anesthesia, and their kidneys were removed and immersed in formalin for storage. The formalin-fixed kidneys were embedded in paraffin, and sections were prepared. Pathological specimens (HE- and PAS-stained) were prepared therefrom, and histopathological examination was carried out. To rats showing pathological conditions of glomerulonephritis and renal failure in the group with induced nephritis, a suspension of Example Compound 1 in 0.5% aqueous methyl cellulose solution […] of anti-GBM antiserum until the end of the experiment. This group was provided as “Example Compound 1 (3 mg/kg)-administered group”. In addition, for comparative control, 0.5% aqueous methyl cellulose solution supplemented with 0.5% Tween 80 was similarly administered to rats in the group with induced nephritis, to provide “nephritis control group”. Similarly, 0.5% aqueous methyl cellulose solution supplemented with 0.5% Tween 80 was administered to the normal group. […] The serum Cys-C level was also measured at Week 5 after the administration of anti-GBM antiserum. The measurement of the serum Cys-C level was carried out using the antigen-antibody reaction. Five weeks after the administration of anti-GBM antiserum, the rats were euthanized under anesthesia. Kidneys were removed therefrom and immersed in formalin for storage. The formalin-fixed kidneys were embedded in paraffin, and sections were prepared. Histopathological specimens (HE- and PAS-stained) were prepared therefrom, and histopathological examination was carried out. […] The abscissa in the figure represents the number of weeks after the administration of anti-GBM antiserum, and the ordinate represents the sCre level (mean±standard error, n=6). The symbol “*” in the figure represents statistically significant difference from the nephritis control group (t-test, p<0.05). The results of histopathological examination of kidneys at Week 5 after the administration of anti-GBM antiserum are shown in FIG. 2, wherein the damaged areas in 30 to 40 glomeruli per individual were scored on a 4-point scale based on the ratio (%) of the lesion area (lesion area score: 1+, less than 25%; 2+, not less than 25% and less than 50%; 3+, not less than 50% and less than 75%; 4+, not less than 75%). Each individual corresponds to each bar, wherein the distribution of lesion area scores is shown. The ordinate in the figure represents the ratio of the lesion area score in each individual. Rats (Wistar-Kyoto strain, male, 10 weeks old; Charles River Laboratories Japan, Inc.) with glomerulonephritis induced by administration of an anti-GBM antiserum into the tail vein were provided as “group with induced nephritis”. […]

[2] = 3 mg/kg, 5 weeks after anti-GBM antiserum, 5 animals

| Compound | pIC50 (recombinant human sEH) | sCre level vs nephritis control group ([1]; 3 mg/kg orally once per day from Week 2, Week 3 after anti-GBM antiserum, t-test p<0.05, FIG. 1) | serum Cys-C level ([1]; 3 mg/kg orally once per day from Week 2, Week 5 after anti-GBM antiserum, mean±standard error, n=6) [mg/L] | histopathological examination of kidneys, injurious changes vs nephritis control group ([1]; 3 mg/kg, 5 weeks after anti-GBM antiserum) | Basophilic tubules, Mild [1, 2] | Basophilic tubules, Moderate [1, 2] | Dilatation of renal tubules, Mild [1, 2] | Dilatation of renal tubules, Moderate [1, 2] | Glomerular sclerosis, Mild [1, 2] | Glomerular sclerosis, Moderate [1, 2] | Glomerular sclerosis, Severe [1, 2] | Mild infiltration of mononuclear cells into the stroma [1, 2] | Protein casts in outer medulla, Mild [1, 2] | Protein casts in outer medulla, Moderate [1, 2] | Protein casts in outer medulla, Severe [1, 2] | scoring of the damaged area in glomeruli (lesion area score) ([1]; 3 mg/kg, Week 5 after anti-GBM antiserum, FIG. 2) | sCre level vs nephritis control group ([1]; 10 mg/kg orally once per day from Week 2, Week 5 after anti-GBM antiserum, FIG. 3) |
| --- | --- | --- | --- | --- | --- | --- | --- | --- | --- | --- | --- | --- | --- | --- | --- | --- | --- |
| CCC(=O)NC1(C(=O)N2CCC[C@@H](C(=O)NCc3ccc(C#N)cc3OC(F)(F)F)C2)CCC1 [Example Compound 1, (R)—N-(4-cyano-2-(trifluoromethoxy)benzyl)-1-(1-propionamidocyclobutanecarbonyl)piperidine-3-carboxamide] | 8.96 | statistically significantly lower | 0.63 ± 0.08 | lower degrees and frequencies of these injurious changes | 2 number of individuals | 3 number of individuals | 1 number of individuals | 4 number of individuals | 0 number of individuals | 5 number of individuals | 0 number of individuals | 5 number of individuals | 1 number of individuals | 4 number of individuals | 0 number of individuals | suppression of glomerular injury |  |
| CC(C)(NS(C)(=O)=O)C(=O)N1CCC[C@@H](C(=O)NCc2ccc(C#N)cc2OC(F)(F)F)C1 [Example Compound 2, (R)—N-(4-cyano-2-(trifluoromethoxy)benzyl)-1-(2-methyl-2-(methylsulfonamido)propanoyl)piperidine-3-carboxamide] | 8.68 |  |  |  |  |  |  |  |  |  |  |  |  |  |  |  | remarkably lower |
